The text below walks through data of patent publication US12605468B2, “Oxazine-based fluorophore compounds for nerve-specific imaging” (Oregon Health & Science University, priority 2020, dated 2026).

Data set [1] is described as follows: Experimental LogD measurement (1-octanol / PBS buffer partition, absorbance readout). As to conditions: pH 7.4, room temperature, read-out: Log D7.4. It counts as physicochemical. Here is the method:
Experimental LogD measurements. Each screening candidate was dissolved in DMSO at a concentration of 10 mM. The stock solution was sampled (2 μL) and added to a 1 mL mixture of 1-octanol and PBS buffer (equal volume). The solution was then vortexed for 30 mins at room temperature before centrifuged at 13,000 rpm for 5 minutes. The PBS buffer and 1-octanol layers were separated and measured for absorbance using a SpectraMax M5 spectrometer with a Microplate reader (Molecular Devices, Sunnyvale, CA). Sample concentration in each phase was then calculated using Beer's Law plots of absorbance versus concentration. The experimental LogD value for each screening candidates was calculated using the equation below.

A further data set relates to nerve. As to conditions: Park et al. Theranostics 4, 823-833 (2014); cited from earlier work.

On to `CCN(CC)c1ccc2nc3ccc(=[N+]4CCC4)cc-3oc2c1` [LGW13-79, 1-(7-(diethylamino)-3H-phenoxazin-3-ylidene)azetidin-1-ium], for which the logD in data set [1] is 0.8.
On the same count and under the same terms, then `CCN1CCOc2cc3nc4ccc(=[N+]5CCC5)cc-4oc3cc21` [LGW14-42, 1-(4-ethyl-3,4-dihydro-[1,4]oxazino[2,3-b]phenoxazin-8(2H)-ylidene)azetidin-1-ium], with 0.5.
On the same count and under the same terms, then `CN1CCOc2cc3nc4ccc(=[N+]5CCC5)cc-4oc3cc21` [LGW14-47, 1-(4-methyl-3,4-dihydro-[1,4]oxazino[2,3-b]phenoxazin-8(2H)-ylidene)azetidin-1-ium], with 0.1; and `CC/[N+](C)=c1\ccc2nc3ccc(N4CCC4)cc3oc-2c1` [LGW14-51, (E)-N-(7-(azetidin-1-yl)-3H-phenoxazin-3-ylidene)-N-methylethanaminium], with 0.5.
On the same count and under the same terms, as for `c1cc2nc3ccc(=[N+]4CCC4)cc-3oc2cc1N1CCC1` [LGW14-53, 1-(7-(azetidin-1-yl)-3H-phenoxazin-3-ylidene)azetidin-1-ium], the figure is 0.3; as for `c1cc2nc3ccc(=[N+]4CCC4)cc-3oc2cc1N1CCCC1` [LGW14-83, 1-(7-(pyrrolidin-1-yl)-3H-phenoxazin-3-ylidene)azetidin-1-ium], 0.5.
Consider `CC/N=c1/cc2oc3cc(NCC)c(C)cc3nc-2cc1C` [Oxazine 4], for which the nerve-specificity entry in the data set on nerve is listed as “high nerve-specificity”.
